Measurements as given in patent publication US5101072A, “Sulfonylhydrazines and their use as antineoplastic agents and as antitrypanosomal agents” (Yale University, priority 1989, dated 1992).

Columns and labels:
L1210 leukemia = experiment: Survival time of mice bearing the L1210 leukemia; assay type: in vivo; settings: for 60-day cures, % / % T/C (average survival time of treated/control animals × 100): L1210, at optimum effective daily dose, once daily × 6 days
Method: The tumor-inhibitory properties of several compounds, e.g., 1,2-bis(methylsulfonyl)-1-methylhydrazine, 1-methyl-1,2,2-tris(methylsulfonyl)hydrazine, 1,2-bis(methylsulfonyl)-1,2-dimethylhydrazine and 1-(2-chloroethyl)-1,2,2-tris(methylsulfonyl)hydrazine were determined by measuring the effects of these agents on the survival time of mice bearing the L1210 leukemia as described by K. Shyam, L. A. Cosby, and A. C. Sartorelli, J. Med. Chem., 28, 525-527 (1985).
^a Administered once daily for 6 consecutive days, beginning 24 hours
after tumor transplantation with 5-10 animals being used per group.
^b Average change in body weight from onset to termination of therapy
^c % T/C = average survival time of treated/control animals ×

T. rhodesiense = experiment: Oral trypanocidal activity (preliminary); assay type: in vivo, T. rhodesiense; mice; settings: aqueous solutions, preliminary results
Text: Orally active trypanocidal agents are desirable since, in areas where trypanosomiasis is endemic, other routes of drug administration frequently present problems.

[1] = test system: T. rhodesiense (Y Tat 1.1); experiment: Survival time of CD-1 mice infected with T. rhodesiense (trypanocidal activity); assay type: in vivo, T. rhodesiense (Y Tat 1.1); CD-1 mice
Method: The trypanocidal properties of several methylating agents including MeSO2 N(Me)N(SO2 Me)2 and MeSO2 N(Me)N(Me)SO2 Me were determined by measuring their effects on the survival time of CD-1 mice infected with T. rhodesiense (Y Tat 1.1), a pleimorphic strain that produces a non-relapsing disease in mice. The level of parasites in the bloodstream and body fluids increases by approximately 10-fold per day and the animals die when the parasite burden exceeds 1 to 2×10^9 cells/ml. Infection with a single viable parasite will kill a mouse in approximately 9 to 10 days.
Mice were infected ip with approximately 10^6 trypanosomes/mouse in phosphate buffered saline containing glucose. This level of parasites produces death in 4 days post-infection. These mice were treated (ip) with a single dose of drug dissolved in the appropriate vehicle 3 days after infection, when the parasitemia was 1 to 3×10^8 cells/ml of blood and the mice, if untreated, would survive for only 24 additional hours. The number of days the mice survived beyond that of the untreated controls was used as a measure of trypanocidal activity. The level of parasitemia in treated mice was measured at regular intervals to distinguish between parasite-related and drug toxicity-related deaths. No toxic deaths were observed. Mice that survived for 30 days without detectable parasitemias were considered cured. The effects of a single dose of various methylating agents on the survival time of trypanosome-bearing mice are summarized in Table II.
^a Drug that was administered was dissolved in 0.5 ml of phosphate
buffered saline containing glucose.
^b Drug that was administered was dissolved in 0.05 ml of DMSO.

[2] = Hydrolysis / decomposition in aqueous solution; assay type: physicochemical; settings: 50 μM solution, phosphate buffered saline (pH 7.6), 37° C.
Method: In the case of 1,2,2-tris(methylsulfonyl)-1-methylhydrazine, this reaction occurs slowly. A 50 μM solution of this compound hydrolyzes at an initial rate of 1% per minute in phosphate buffered saline (pH 7.6) at 37° C.
Hydrolysis is expected to occur preferentially at N-2 to generate the 1,2-bis(sulfonyl)-1-methylhydrazine. The sulfonic acid and 1,2-bis(sulfonyl)-1-methylhydrazine that are generated are both ionized under these conditions. The release of protons can be used to follow the decomposition of these and related compounds. The release of protons can be assayed by following the decrease in absorbance at 560 nm of a weakly buffered (1 mM potassium phosphate) phenol red (21 mg/l) solution; initial pH 7.6 at 37° C. The assay can be calibrated using HCl standards.
(§1) The reaction of 1,2-bis(sulfonyl)-1-methylhydrazine with water at pH 7.4-7.6 at 37° C. can be followed by proton release and/or methanol generation. Methanol generation can be assayed using alcohol oxidase and measuring the resultant O2 consumption using a Gilson oxygraph. This assay can be calibrated using methanol standards. The reaction of 1,2-bis(sulfonyl)-1-methylhydrazine with water is relatively fast [a 50 μM solution of 1,2-bis(methylsulfonyl)-1-methylhydrazine decomposes at an initial rate of 12-15% per minute in phosphate buffered saline (pH 7.6) at 37° C.] compared to the hydroylsis of 1,2,2-tris(methylsulfonyl)-1-methylhydrazine. RSO2 N=NMe may also decompose by a free radical mechanism to a smaller extent and methylate by the generation of methyl radicals.

[3] = Methanol generation in vitro (spontaneous breakdown to generate reactive methyl groups); assay type: physicochemical; settings: relative; PhSO2 N(Me)NHSO2 Ph = 1.0
Method: as §1
Methanol was produced by these agents in aqueous solutions free from strong competing nucleophiles. Formation of this alcohol was used as a measure of the rate of spontaneous breakdown of these compounds to generate reactive methyl groups. […] These findings provide strong evidence that methylation is essential for the observed biological activity of these compounds.

[4] = mice bearing L1210, at optimum effective daily dose
[5] = single ip dose 0.2 mmol/kg in 0.05 ml of DMSO
[6] = single ip dose 0.2 mmol/kg in 0.5 ml phosphate buffered saline containing glucose

Row | SMILES | 60-day cures, % (L1210 leukemia) [%] | % T/C (average survival time of treated/control animals × 100) (L1210 leukemia) [%] | AvΔ Wt, % (average change in body weight from onset to termination of therapy) (L1210 leukemia; [4]) | also measured
1 | CS(=O)(=O)N(CCI)N(S(C)(=O)=O)S(C)(=O)=O [MeSO2 N(CH2 CH2 I)N(SO2 Me)2, 1-(2-iodoethyl)-1,2,2-tris(methylsulfonyl)hydrazine] | 0 | 110 | +8.0% | –
2 | CN(N(S(C)(=O)=O)S(C)(=O)=O)S(C)(=O)=O [MeSO2 N(Me)N(SO2 Me)2, 1-Methyl-1,2,2-tris(methylsulfonyl)hydrazine] | 0 | 186 | – | Trypanocidal activity on oral administration compared with Table II (T. rhodesiense): comparable activity to that reported in Table II; AvΔ Wt, % (average change in body weight from onset to termination of therapy) (L1210 leukemia; mouse, in vivo): -7.7%; Mean Extension of Life [1, 5]: 7.7 days; cure (30 days without detectable parasitemias) ([1]; single ip dose 1.0 mmol/kg in 0.05 ml of DMSO): 100%; Initial rate of hydrolysis / decomposition [2]: 1 % per minute
3 | CS(=O)(=O)N(N(CCCl)S(=O)(=O)c1ccc(Cl)cc1)S(C)(=O)=O [Cl-4-C6 H4 SO2 N(CH2 CH2 Cl)N(SO2 Me)2, 2,2-Bis(methylsulfonyl)-1-(2-chloroethyl)-1-[(4-chlorophenyl)sulfonyl]hydrazine] | 60 | 203 | -3.4% | –
4 | CN(NC(=O)c1ccccc1)C(=O)c1ccccc1 [PhCON(Me)NHCOPh] | – | – | – | Mean Extension of Life (Table III) ([1]; administered in 0.05 ml of DMSO, dose not given): 0 days; Relative Methanol Generation in vitro [3]: 0
5 | CCOS(=O)(=O)OCC [Et2 SO4] | – | – | – | Mean Extension of Life [1, 5]: 0 days
6 | Cc1ccc(S(=O)(=O)N(CCCl)N(S(C)(=O)=O)S(C)(=O)=O)cc1 [Me-4-C6 H 4 SO2 N(CH2 CH2 Cl)N(SO2 Me)2, 2,2-bis(methylsulfonyl)-1-(2-chloroethyl)-1-(4-toluenesulfonyl)hydrazine] | 60 | 215 | -12.0% | –
7 | CN(N=O)C(=O)N[C@H]1C(O)O[C@H](CO)[C@@H](O)[C@@H]1O (stereo partly drawn) [Streptozotocin, streptozotocin] | – | – | – | Mean Extension of Life [1, 6]: 4.3 days
8 | CS(=O)(=O)N(N(CCCl)S(=O)(=O)c1ccc(Br)cc1)S(C)(=O)=O [Br-4-C6 H4 SO2 N(CH2 CH2 Cl)N(SO2 Me)2, 2,2-Bis(methylsulfonyl)-1-[(4-bromophenyl)sulfonyl]-1-(2-chloroethyl)hydrazine] | 60 | 241 | +0.9% | –
9 | CNNC [MeNHNHMe, 1,2-dimethylhydrazine] | – | – | – | Mean Extension of Life [1, 6]: 4.3 days
10 | CN(N(C)S(C)(=O)=O)S(C)(=O)=O [MeSO2 N(Me)N(Me)SO2 Me, 1,2-Bis(methylsulfonyl)-1,2-dimethylhydrazine] | 0 | 158 | – | Trypanocidal activity on oral administration compared with Table II (T. rhodesiense): comparable activity to that reported in Table II; AvΔ Wt, % (average change in body weight from onset to termination of therapy) (L1210 leukemia; mouse, in vivo): -11.3%; cure (30 days without detectable parasitemias) [1, 5]: 25%; Mean Extension of Life for relapsing animals ([1]; single ip dose 0.2 mmol/kg in 0.05 ml of DMSO, relapsing animals): 9.7 days
11 | COc1ccc(S(=O)(=O)N(CCCl)N(S(C)(=O)=O)S(C)(=O)=O)cc1 [MeO-4-C6 H4 SO2 N(CH2 CH2 Cl)N(SO2 Me)2, 2,2-Bis(methylsulfonyl)-1-(2-chloroethyl)-1-[(4-methoxyphenyl)sulfonyl]hydrazine] | 100 | – | +5.9% | –
12 | COc1ccc(S(=O)(=O)NN(C)S(C)(=O)=O)cc1 [MeSO2 N(Me)NHSO2 C6 H4 -p-OMe] | – | – | – | Mean Extension of Life [1, 5]: 4.5 days
